Measurements taken from patent publication US4923888A, “Butenoic acid amides, their salts, and pharmaceutical compositions containing them” (Richter Gedeon Vegyeszeti Gyar RT, priority 1987, dated 1990).

Experiments:
[1] = tested on: chronic stomach ulcer; test: acetic acid-induced chronic stomach ulcer model (promoting the healing); type: in vivo, rats; details: for Ulcer index: ± S.E.M
Method: The investigation of (the effect promoting the healing of) the chronic stomach ulcer induced by acetic acid was carried out as follows. In the course of examining the healing-promoting effect, one of the most widely used methods namely, the so-called acetic acid-induced chronic stomach ulcer model was used [Takagi et. al.: Jap. […] The abdominal wall of anaesthetized rats was opened and 50 μl of a 20% acetic acid solution were injected into the stomach wall, then the abdominal wall of the animal was sutured. The treatment by the test compounds was started on day 5 following the surgical operation and continued until day 14 by using the daily doses shown in Table 2. Then, the animals were killed and their stomachs were examined. The extent of ulceration was assessed by measuring the diameter of the ulcer, wherefrom the size of the damaged area could be calculated. For characterizing the degree of the cicatrization, the change in the ulcer index measured in the treated animals was related to the values measured in the untreated (control) animals and expressed as percentage values.

[2] = oral toxicity; type: in vivo
[3] = tested on: glandular part of the stomach; test: acid-ethanol test (cytoprotective action, method of A. Robert); type: in vivo, rats; details: oral; for ED50: Rattus norvegicus, acid-ethanol test, starved rats, read-out: Cytoprotective effect ED50
Source text: Starved rats were given absolute ethanol containing concentrated hydrochloric acid which induced longitudinal bleedings in the glandular part of the stomach within a short time. This damaging effect is prevented by cytoprotective substances.
The oral ED50 values of some compounds according to the invention, which were examined in the acid-ethanol test, are shown in Table 1.

[4] = 50 × 10 mg/kg/day p.o., Table 3
[5] = 10 × 10 mg/kg/day p.o., Table 2
[6] = 10 × 10 mg/kg/day p.o., P <0.01 vs control (C only)

CN/C(=N/CCSCc1nc[nH]c1C)NC#N [Cimetidine, reference compound]
Change in the ulcer index related to the control (promotion of the healing) [1, 4]: 17%

NC[C@H]1CC[C@H](C(=O)Oc2ccc(CCC(=O)O)cc2)CC1 [Cetraxate, reference compound]
Change in the ulcer index related to the control (promotion of the healing) ([1]; 150 × 10 mg/kg/day p.o., Table 3): 49%

C[S+](C)CCC(N)C(=O)O (stereo not shown) [MMSC, Methylmethionine sulfonium chloride, reference compound]
Change in the ulcer index related to the control (promotion of the healing) [1, 4]: 59%

CN1CCN(CC(=O)N2c3ccccc3C(=O)Nc3cccnc32)CC1 [Pirenzepine, reference compound]
Change in the ulcer index related to the control (promotion of the healing) ([1]; 12 × 10 mg/kg/day p.o., Table 3): 13%

CC(=O)c1ccc2c(c1)C(=O)C1(CC1)O2 [Spizofuron, reference compound]
Change in the ulcer index related to the control (promotion of the healing) [1, 4]: 11%

CCOC(=O)C[C@@H](NC(=O)/C=C/C(=O)c1ccccc1)C(=O)OCC [C, diethyl N-[4-oxo-4-phenyl-2(E)-butenoyl]-(R)-aspartate]
healing of the ulcer accelerated ([1]; 3 mg/kg oral dose, statement on Table 2): 57%
Change in the ulcer index related to the control (delaying of the healing) ([1]; 1 × 10 mg/kg/day p.o., Table 2): 13%
Ulcer index ([1]; 1 × 10 mg/kg/day p.o.): 13.1 ± 3.5 mm^2 /stomach
Change in the ulcer index related to the control (promotion of the healing) ([1]; 3 × 10 mg/kg/day p.o., Table 2): 57%
Ulcer index ([1]; 3 × 10 mg/kg/day p.o., P <0.01 vs control): 5.0 ± 1.2 mm^2 /stomach
Change in the ulcer index related to the control (promotion of the healing) [1, 5]: 77%
Ulcer index [1, 6]: 2.7 ± 1.1 mm^2 /stomach
healing-promoting effect compared with reference drugs ([1]; R isomer vs reference drugs of Table 3): greatly exceeds that of the reference drugs
difference between the healing-promoting effects of the R and RS modifications ([1]; statement on Table 2): highly significant difference
toxicity, oral dose of 1200 mg/kg [2]: not toxic
ED50 [3]: 1.7 mg/kg
cytoprotective test, comparison in words ([3]; statement on Table 1): most effective

Sucralfate [reference compound]
Change in the ulcer index related to the control (promotion of the healing) ([1]; 500 × 10 mg/kg/day p.o., Table 3): 55%

CCOC(=O)CC(NC(=O)/C=C/C(=O)c1ccccc1)C(=O)OCC (racemic) [B, diethyl N-[4-oxo-4-phenyl-2(E)-butenoyl]-(RS)-aspartate]
Change in the ulcer index related to the control (promotion of the healing) [1, 5]: 34%
Ulcer index [1, 6]: 7.7 ± 2.8 mm^2 /stomach
Change in the ulcer index related to the control (promotion of the healing) ([1]; 30 × 10 mg/kg/day p.o., Table 2): 63%
Ulcer index ([1]; 30 × 10 mg/kg/day p.o., P <0.01 vs control (B)): 4.2 ± 1.8 mm^2 /stomach
difference between the healing-promoting effects of the R and RS modifications ([1]; statement on Table 2): highly significant difference
ED50 [3]: 2.6 mg/kg

CCOC(=O)C[C@H](NC(=O)/C=C/C(=O)c1ccccc1)C(=O)OCC [A, diethyl N-[4-oxo-4-phenyl-2(E)-butenoyl]-(S)-aspartate]
healing of the ulcer, result in words ([1]; 40 mg/kg oral dose, statement on Table 2): not promoted
Change in the ulcer index related to the control (delaying of the healing) ([1]; 40 × 10 mg/kg/day p.o., Table 2): 11%
Ulcer index ([1]; 40 × 10 mg/kg/day p.o.): 13.4 ± 2.1 mm^2 /stomach
ED50 [3]: 3.8 mg/kg
